Data from patent US9278915B2, “Agonists of GPR40” (CONNEXIOS LIFE SCIENCES PVT LTD, priority 2010, dated 2016).

Target: T1, hGPR40 (Homo sapiens, UniProt O14842)
T1 construct: expressed in transfected cells
Test: Calcium flux assay to detect GPR40 activation
Type: cell-based
Settings: CHO-K cells stably expressing hGPR40; Fluo-4 NW; read for 4 min at 5 s intervals
Experimental: Biological Activity Calium Flux Assay to Detect GPR40 Activation: CHO-K cells stably expressing hGPR40 were selected in a media containing Neomycin/G418. The cells were plated at a concentration of 20,000 cells per well in black 96-well clear bottom tissue culture treated plates. The cells were cultured for 24 h at 37° C. in a humidified 5% CO2 air environment to allow for protein expression. The next day, after removal of media from wells, Fluo-4 NW (Invitrogen) is added at 100 ul/well and the cells were incubated for 30 min at 37° C. and for a further 30 min at RT. All test compounds were diluted to appropriate concentrations in HEPES buffer. Compounds were added to the cells and the wells were read in the BioTEK synergy reader and readings were taken for 4 min with an interval of 5 s.

T1 sequence (O14842 whole entry): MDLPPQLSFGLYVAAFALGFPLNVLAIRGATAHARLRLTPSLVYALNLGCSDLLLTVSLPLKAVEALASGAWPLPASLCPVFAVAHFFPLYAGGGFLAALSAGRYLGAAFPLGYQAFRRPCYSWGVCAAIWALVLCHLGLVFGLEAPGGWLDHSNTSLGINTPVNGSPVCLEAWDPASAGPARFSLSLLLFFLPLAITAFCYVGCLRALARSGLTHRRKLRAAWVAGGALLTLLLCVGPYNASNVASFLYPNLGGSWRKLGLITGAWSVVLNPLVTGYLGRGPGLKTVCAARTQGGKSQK

Row | Compound | EC50
1 | CO/N=C(\COc1ccc(COc2ccc(C(C#N)CC(=O)O)cc2)cc1F)c1ccccc1 (stereo not drawn) [Compound 50, Sodium 3-cyano-3-{4-[(3-fluoro-4-{[(2Z)-2-(methoxyimino)-2-phenylethyl]oxy}benzyl)oxy]phenyl}propanoate] | < 10 nM
2 | CO/N=C(\COc1ccc(COc2ccc(C3CC3C(=O)O)cc2)cc1)c1ccc(C#N)cc1 (stereo not drawn) [Compound 51, Sodium 2-{4-[(4-{[(2Z)-2-(4-cyanophenyl)-2-(methoxyimino)ethyl]oxy}benzyl)oxy]phenyl}cyclopropanecarboxylate] | < 10 nM
3 | CO/N=C(/COc1ccc(COc2ccc(C(C#N)CC(=O)O)cc2)cc1)c1ccccc1 (stereo not drawn) [Compound 53, Sodium 3-cyano-3-{4-[(4-{[(2E)-2-(methoxyimino)-2-phenylethyl]oxy}benzyl)oxy]phenyl}propanoate] | 10 to 100 nM
4 | CO/N=C(\COc1ccc(COc2ccc(C(C#N)CC(=O)O)cc2)cc1)c1ccc(F)cc1 (stereo not drawn) [Compound 54, Sodium 3-cyano-3-{4-[(4-{[(2Z)-2-(4-fluorophenyl)-2-(methoxyimino)ethyl]oxy}benzyl)oxy]phenyl}propanoate] | 10 to 100 nM
5 | CO/N=C(\COc1ccc(COc2ccc(C(C#N)CC(=O)O)cc2)cc1)c1cccc(F)c1 (stereo not drawn) [Compound 55, Sodium 3-cyano-3-{4-[(4-{[(2Z)-2-(3-fluorophenyl)-2-(methoxyimino)ethyl]oxy}benzyl)oxy]phenyl}propanoate] | < 10 nM
6 | CO/N=C(\COc1ccc(COc2ccc(C3CC3C(=O)O)cc2)cc1)c1ccc(OC)cc1 (stereo not drawn) [Compound 57, Sodium 2-{4-[(4-{[(2Z)-2-(methoxyimino)-2-(4-methoxyphenyl)ethyl]oxy}benzyl)oxy]phenyl}cyclopropanecarboxylate] | 10 to 100 nM
7 | CO/N=C(\COc1ccc(COc2ccc(CCC(=O)O)c(OCC3CC3)c2)cc1)c1ccccc1 [Compound 58, 3-{2-(Cyclopropylmethoxy)-4-[(4-{[(2Z)-2-(methoxyimino)-2-phenylethyl]oxy}benzyl)oxy]phenyl}propanoic acid] | > 100 nM
8 | CO/N=C(\COc1ccc(COc2ccc(C(C)(C#N)CC(=O)O)cc2)cc1)c1ccccc1 (stereo not drawn) [Compound 59, 3-Cyano-3-{4-[(4-{[(2Z)-2-(methoxyimino)-2-phenylethyl]oxy}benzyl)oxy]phenyl}butanoic acid] | > 100 nM
9 | CO/N=C(\COc1ccc(COc2ccc(CCC(=O)O)c(OC(C)C)c2)cc1)c1ccccc1 [Compound 60, 3-{4-[(4-{[(2Z)-2-(Methoxyimino)-2-phenylethyl]oxy}benzyl)oxy]-2-(propan-2-yloxy)phenyl}propanoic acid] | > 100 nM
10 | CO/N=C(\COc1ccc(COc2ccc(C(C#N)CC(=O)O)c(C)c2)cc1)c1ccccc1 (stereo not drawn) [Compound 62, 3-Cyano-3-{4-[(4-{[(2Z)-2-(methoxyimino)-2-phenylethyl]oxy}benzyl)oxy]-2-methylphenyl}propanoic acid] | 10 to 100 nM
11 | CO/N=C(\COc1ccc(COc2ccc([C@H]3C[C@H]3C(=O)O)cc2)cc1)c1ccc(C#N)cc1 [Compound 63, (1R,2S)-2-{4-[(4-{[(2Z)-2-(4-Cyanophenyl)-2-(methoxyimino)ethyl]oxy}benzyl)oxy]phenyl}cyclopropanecarboxylic acid] | > 100 nM
12 | CO/N=C(\COc1ccc(COc2ccc([C@H]3C[C@@H]3C(=O)O)cc2)cc1)c1ccc(C#N)cc1 [Compound 64, (1S,2S)-2-{4-[(4-{[(2E,2Z)-2-(4-Cyanophenyl)-2-(methoxyimino)ethyl]oxy}benzyl)oxy]phenyl}cyclopropanecarboxylic acid] | 10 to 100 nM
13 | CO/N=C(\COc1ccc(COc2ccc(CCC(=O)O)c(-c3cc(C)on3)c2)cc1)c1ccccc1 [Compound 65, 3-{4-[(4-{[(2Z)-2-(Methoxyimino)-2-phenylethyl]oxy}benzyl)oxy]-2-(5-methyl-1,2-oxazol-3-yl)phenyl}propanoic acid] | > 100 nM
14 | CO/N=C(\COc1ccc(COc2ccc(C(C#N)CC(=O)O)cc2)cc1)c1ccc(OC)cc1 (stereo not drawn) [Compound 66, 3-Cyano-3-{4-[(4-{[(2Z)-2-(methoxyimino)-2-(4-methoxyphenyl)ethyl]oxy}benzyl)oxy]phenyl}propanoic acid] | < 10 nM
15 | CO/N=C(\COc1ccc(COc2ccc(C(CC(=O)O)c3c(C)noc3C)cc2)cc1)c1ccccc1 (stereo not drawn) [Compound 67, 3-(3,5-Dimethyl-1,2-oxazol-4-yl)-3-{4-[(4-{[(2E,2Z)-2-(methoxyimino)-2-phenylethyl]oxy}benzyl)oxy]phenyl}propanoic acid] | > 100 nM
16 | CO/N=C(\COc1ccc(COc2ccc(/C(CC(=O)O)=N\OC)cc2)cc1)c1ccccc1 [Compound 68, (3E,3Z)-3-(Methoxyimino)-3-{4-[(4-{[(2Z)-2-(methoxyimino)-2-phenylethyl]oxy}benzyl)oxy]phenyl}propanoic acid] | > 100 nM
17 | CO/N=C(\COc1ccc(COc2ccc(-c3c(C)noc3CC(=O)O)cc2)cc1)c1ccccc1 [Compound 69, (4-{4-[(4-{[(2Z)-2-(Methoxyimino)-2-phenylethyl]oxy}benzyl)oxy]phenyl}-3-methyl-1,2-oxazol-5-yl)acetic acid] | > 100 nM

Row | Compound | EC50
18 | CO/N=C(\COc1ccc(COc2ccc(CCC(=O)O)c(F)c2)cc1)c1ccccc1 [Compound 71, Sodium 3-{2-fluoro-4-[(4-{[(2Z)-2-(methoxyimino)-2-phenylethyl]oxy}benzyl)oxy]phenyl}propanoate] | > 100 nM
19 | CO/N=C(\COc1ccc(CNc2ccc(-c3onc(C)c3CCC(=O)O)cc2)cc1)c1ccc(C#N)cc1 [Compound 72, 3-(5-{4-[(4-{[(2E,2Z)-2-(4-Cyanophenyl)-2-(methoxyimino)ethyl]oxy}benzyl)amino]phenyl}-3-methyl-1,2-oxazol-4-yl)propanoic acid] | > 100 nM
20 | CO/N=C(\COc1ccc(COc2ccc3c(c2)OCC3CC(=O)O)cc1)c1ccccc1 (stereo not drawn) [Compound 73, {6-[(4-{[(2Z)-2-(Methoxyimino)-2-phenylethyl]oxy}benzyl)oxy]-2,3-dihydro-1-benzofuran-3-yl}acetic acid] | 10 to 100 nM
21 | CO/N=C(\COc1ccc(COc2ccc(/C(C#N)=C/C(=O)O)cc2)cc1)c1ccccc1 [Compound 76, (2Z)-3-Cyano-3-{4-[(4-{[(2Z)-2-(methoxyimino)-2-phenylethyl]oxy}benzyl)oxy]phenyl}prop-2-enoic acid] | 10 to 100 nM
22 | CO/N=C(\COc1ccc(COc2ccc(C(C#N)CC(=O)O)c(F)c2)cc1)c1ccccc1 (stereo not drawn) [Compound 77, 3-Cyano-3-{2-fluoro-4-[(4-{[(2Z)-2-(methoxyimino)-2-phenylethyl]oxy}benzyl)oxy]phenyl}propanoic acid] | < 10 nM
23 | N#CC(CC(=O)O)c1ccc(OCc2ccc(OC/C(=N\O)c3ccccc3)cc2)cc1 (stereo not drawn) [Compound 78, 3-Cyano-3-{4-[(4-{[(2E,2Z)-2-(hydroxyimino)-2-phenylethyl]oxy}benzyl)oxy]phenyl}propanoic acid] | 10 to 100 nM
24 | CO/N=C(\COc1ccc(COc2ccc(C(C#N)CC(=O)O)c(OC)c2)cc1)c1ccccc1 (stereo not drawn) [Compound 83, 3-Cyano-3-{2-methoxy-4-[(4-{[(2Z)-2-(methoxyimino)-2-phenylethyl]oxy}benzyl)oxy]phenyl}propanoic acid] | 10 to 100 nM
25 | CO/N=C(\COc1ccc(COc2ccc(CCC(=O)O)c(-c3c(C)noc3C)c2)cc1)c1ccccc1 [Compound 84, 3-{2-(3,5-Dimethyl-1,2-oxazol-4-yl)-4-[(4-{[(2E,2Z)-2-(methoxyimino)-2-phenylethyl]oxy}benzyl)oxy]phenyl}propanoic acid] | > 100 nM
26 | CC#CC(CC(=O)O)c1ccc(OCc2ccc(OC/C(=N\OC)c3ccccc3)cc2)cc1 (stereo not drawn) [Compound 85, 3-{4-[(4-{[(2Z)-2-(Methoxyimino)-2-phenylethyl]oxy}benzyl)oxy]phenyl}hex-4-ynoic acid] | < 10 nM
27 | CO/N=C(\COc1ccc(COc2cc(F)c(CCC(=O)O)cc2F)cc1)c1ccccc1 [Compound 86, 3-{2,5-Difluoro-4-[(4-{[(22)-2-(methoxyimino)-2-phenylethyl]oxy}benzyl)oxy]phenyl}propanoic acid] | > 100 nM
28 | CO/N=C(\COc1ccc(COc2ccc(C(CC(=O)O)C3CC3)cc2)cc1)c1ccccc1 (stereo not drawn) [Compound 87, 3-Cyclopropyl-3-{4-[(4-{[(2Z)-2-(methoxyimino)-2-phenylethyl]oxy}benzyl)oxy]phenyl}propanoic acid] | > 100 nM
29 | CO/N=C(\COc1ccc(COc2ccc(CCC(=O)O)c(OCC#N)c2)cc1)c1ccccc1 [Compound 88, 3-{2-(Cyanomethoxy)-4-[(4-{[(2Z)-2-(methoxyimino)-2-phenylethyl]oxy}benzyl)oxy]phenyl}propanoic acid] | > 100 nM
30 | CCOC(=O)CCc1ccc(OCc2ccc(OC/C(=N\OC)c3ccccc3)cc2)cc1OCC(=O)O [Compound 90, {2-(3-Ethoxy-3-oxopropyl)-5-[(4-{[(2E,2Z)-2-(methoxyimino)-2-phenylethyl]oxy}benzyl)oxy]phenoxy}acetic acid] | > 100 nM
31 | CCCC(CC(=O)O)c1ccc(OCc2ccc(OC/C(=N\OC)c3ccccc3)cc2)cc1 (stereo not drawn) [Compound 91, 3-{4-[(4-{[(2Z)-2-(Methoxyimino)-2-phenylethyl]oxy}benzyl)oxy]phenyl}hexanoic acid] | > 100 nM
32 | CO/N=C(\COc1ccc(COc2ccc(CCC(=O)O)cc2)cc1)c1ccc(S(C)(=O)=O)cc1 [Compound 92, 3-(4-{[4-({(2Z)-2-(Methoxyimino)-2-[4-(methylsulfonyl)phenyl]ethyl}oxy)benzyl]oxy}phenyl)propanoic acid] | > 100 nM
33 | CO/N=C(\COc1ccc(COc2ccc(C(CC(=O)O)C(N)=O)cc2)cc1)c1ccccc1 (stereo not drawn) [Compound 93, 4-Amino-3-{4-[(4-{[(2Z)-2-(methoxyimino)-2-phenylethyl]oxy}benzyl)oxy]phenyl}-4-oxobutanoic acid] | > 100 nM
